“And” between values parts separate entries of the source, which are not always exact repeats. Equal values may be shown once.
Key:
Experiment in all cases: CellTiter-Glo dose-response cell viability assay
Type in all cases: cell-based, human
[1] = system: BT145 patient-derived GSC line; conditions: no IR
Protocol: (§1) QST (JNJ-26481585) is a second-generation hydroxamic acid harboring remarkable selectivity toward class I HDACs, with a biochemical IC50 of 0.1 nM for HDAC1 ([13]). […] To determine the cytotoxic effects of QST, we performed a dose-titration cell viability assay in 7 patient-derived GSC lines (BT145, GB187, GB239, GB282, GB71, GB82, and GB126) and 1 long-term serum-grown human GBM cell line (U87). Because GBMs display a high degree of intratumoral heterogeneity, we used GSCs derived from both primary and recurrent GBMs that harbored distinct genetic mutations or aberrations, growth rates, MGMT promoter methylation status, and gene expression profiles (Supplemental Figure 1; supplemental material available online with this article; https://doi.org/10.1172/jci.insight.167081DS1). Cell lines were treated with various concentrations of QST (10–1000 nM), and cell viability was measured 3–5 days later (Figure 1, A and B). […] Treatment with QST at the IC50 induced significant inhibition of proliferation (Ki67) and an increase in programmed cell death (cleaved caspase 3) in 2 different GSC lines (Figure 1, C and D). Additional analyses confirmed that QST induces apoptosis after short-term treatment through increased staining of the apoptotic marker annexin V (Figure 2A) and cell cycle arrest (in G2- or S-phase; Figure 2B and Supplemental Figure 1B).
(§2) GSCs were seeded in laminin-coated tissue culture–treated 96-well plates (clear bottom, white plate; Corning) at a density of 1000–5000 cells per well (cell line dependent) in GSC media. U87-MG were seeded using their normal growth conditions without laminin (10% bovine calf serum in DMEM). All cells were incubated at 37°C and allowed to adhere overnight. The next day, cells were treated with incremental concentrations of QST (Selleckchem; 0, 10, 25, 50, 100, 250, 500, and 1000 nM) diluted in media. Cells treated without QST were treated with DMSO diluted in media. Following treatment with QST, cells were grown for 3 to 5 days (cell line dependent), and cell viability was measured and quantified. All cell viability measurements were performed using the CellTiter-Glo luminescent cell viability assay (Promega) following the manufacturer’s instructions. For the sulforhodamine B colorimetric assay for cytotoxicity, the protocol was performed as described elsewhere ([33]). All cell viability results represent the mean of at least 3 biological replicates, each containing 3 technical replicates.

[2] = system: GB282 patient-derived GSC line
Protocol: as §1, §2

U87 GBM cell line = system: U87 GBM cell line
Protocol: as §1, §2

[3] = system: GB187 patient-derived GSC line
Protocol: as §1, §2

`Cn1cc(CNCC2CCN(c3ncc(C(=O)NO)cn3)CC2)c2ccccc21` [QST, quisinostat] was tested, and the “Cell viability (fraction of DMSO control)” value ([1]; QST 50 nM (log[nM] 1.69897)) was 0.4986 and 0.5266, the “Cell viability (fraction of DMSO control)” value ([1]; QST 100 nM (log[nM] 2)) was 0.3524 and 0.2775 and the “Cell viability (fraction of DMSO control)” value ([1]; QST 250 nM (log[nM] 2.39794)) was 0.3528 and 0.3396. The “Cell viability (fraction of DMSO control)” value ([1]; QST 500 nM (log[nM] 2.69897)) was 0.2416 and 0.229, the “Cell viability (fraction of DMSO control)” value ([1]; QST 1000 nM (log[nM] 3)) was 0.1715 and the “Cell viability (fraction of DMSO control)” value ([2]; GB282xTdT, QST 10 nM (log[nM] 1)) was 0.8875 and 0.8957. The “Cell viability (fraction of DMSO control)” value ([2]; GB282xTdT, QST 25 nM (log[nM] 1.39794)) was 0.7531 and 0.7488, the “Cell viability (fraction of DMSO control)” value ([2]; GB282xTdT, QST 50 nM (log[nM] 1.69897)) was 0.6063 and 0.5741 and the “Cell viability (fraction of DMSO control)” value ([2]; GB282xTdT, QST 100 nM (log[nM] 2)) was 0.3901 and 0.3391. For the same compound, the “Cell viability (fraction of DMSO control)” value ([2]; GB282xTdT, QST 250 nM (log[nM] 2.39794)) was 0.1846 and 0.1521, the “Cell viability (fraction of DMSO control)” value ([2]; GB282xTdT, QST 500 nM (log[nM] 2.69897)) was 0.1138 and 0.08263 and the “Cell viability (fraction of DMSO control)” value ([2]; GB282xTdT, QST 1000 nM (log[nM] 3)) was 0.07483 and 0.05455. The viability at 0.01 µM ([2]; Homo sapiens, GB282xTdT, QST 10 nM (log[nM] 1), read-out: Cell viability (fraction of DMSO control)) was 98.4%, the viability at 0.025 µM ([2]; Homo sapiens, GB282xTdT, QST 25 nM (log[nM] 1.39794), read-out: Cell viability (fraction of DMSO control)) was 84.2% and the viability at 0.05 µM ([2]; Homo sapiens, GB282xTdT, QST 50 nM (log[nM] 1.69897), read-out: Cell viability (fraction of DMSO control)) was 68%. For the same compound, the viability at 0.1 µM ([2]; Homo sapiens, GB282xTdT, QST 100 nM (log[nM] 2), read-out: Cell viability (fraction of DMSO control)) was 43.8%, the viability at 0.25 µM ([2]; Homo sapiens, GB282xTdT, QST 250 nM (log[nM] 2.39794), read-out: Cell viability (fraction of DMSO control)) was 22% and the viability at 0.5 µM ([2]; Homo sapiens, GB282xTdT, QST 500 nM (log[nM] 2.69897), read-out: Cell viability (fraction of DMSO control)) was 13.2%. The viability at 1 µM ([2]; Homo sapiens, GB282xTdT, QST 1000 nM (log[nM] 3), read-out: Cell viability (fraction of DMSO control)) was 8.37%, the IC50 ([2]; Homo sapiens, GB282, 3-5 days) was 66 nM and the viability at 0.01 µM (U87 GBM cell line; Homo sapiens, U87LN, QST 10 nM (log[nM] 1), read-out: Cell viability (fraction of DMSO control)) was 83.5%. For the same compound, the viability at 0.025 µM (U87 GBM cell line; Homo sapiens, U87LN, QST 25 nM (log[nM] 1.39794), read-out: Cell viability (fraction of DMSO control)) was 56.7%, the viability at 0.05 µM (U87 GBM cell line; Homo sapiens, U87LN, QST 50 nM (log[nM] 1.69897), read-out: Cell viability (fraction of DMSO control)) was 31.6% and the viability at 0.1 µM (U87 GBM cell line; Homo sapiens, U87LN, QST 100 nM (log[nM] 2), read-out: Cell viability (fraction of DMSO control)) was 21.5%. It also gave a viability at 0.25 µM (U87 GBM cell line; Homo sapiens, U87LN, QST 250 nM (log[nM] 2.39794), read-out: Cell viability (fraction of DMSO control)) of 12.8%, a viability at 0.5 µM (U87 GBM cell line; Homo sapiens, U87LN, QST 500 nM (log[nM] 2.69897), read-out: Cell viability (fraction of DMSO control)) of 9.84% and a viability at 1 µM (U87 GBM cell line; Homo sapiens, U87LN, QST 1000 nM (log[nM] 3), read-out: Cell viability (fraction of DMSO control)) of 8.54%. For the same compound, the IC50 (U87 GBM cell line; Homo sapiens, U87, 3-5 days) was 28 nM, the “Cell viability (fraction of DMSO control)” value (U87 GBM cell line; U87LN, QST 10 nM (log[nM] 1)) was 0.852 and 0.8354 and the “Cell viability (fraction of DMSO control)” value (U87 GBM cell line; U87LN, QST 25 nM (log[nM] 1.39794)) was 0.6316 and 0.5286. For the same compound, the “Cell viability (fraction of DMSO control)” value (U87 GBM cell line; U87LN, QST 50 nM (log[nM] 1.69897)) was 0.3812 and 0.3792, the “Cell viability (fraction of DMSO control)” value (U87 GBM cell line; U87LN, QST 100 nM (log[nM] 2)) was 0.2379 and 0.236 and the “Cell viability (fraction of DMSO control)” value (U87 GBM cell line; U87LN, QST 250 nM (log[nM] 2.39794)) was 0.1476 and 0.1204. The “Cell viability (fraction of DMSO control)” value (U87 GBM cell line; U87LN, QST 500 nM (log[nM] 2.69897)) was 0.1063 and 0.09789, the “Cell viability (fraction of DMSO control)” value (U87 GBM cell line; U87LN, QST 1000 nM (log[nM] 3)) was 0.08873 and 0.08769 and the “Cell viability (fraction of DMSO control)” value ([3]; GB187x, QST 10 nM (log[nM] 1)) was 0.9255 and 0.9282. For the same compound, the “Cell viability (fraction of DMSO control)” value ([3]; GB187x, QST 25 nM (log[nM] 1.39794)) was 0.8647 and 0.8308, the “Cell viability (fraction of DMSO control)” value ([3]; GB187x, QST 50 nM (log[nM] 1.69897)) was 0.7684 and 0.7163 and the “Cell viability (fraction of DMSO control)” value ([3]; GB187x, QST 100 nM (log[nM] 2)) was 0.6258 and 0.5995. The “Cell viability (fraction of DMSO control)” value ([3]; GB187x, QST 250 nM (log[nM] 2.39794)) was 0.5316 and 0.4983, the “Cell viability (fraction of DMSO control)” value ([3]; GB187x, QST 500 nM (log[nM] 2.69897)) was 0.4749 and 0.464 and the “Cell viability (fraction of DMSO control)” value ([3]; GB187x, QST 1000 nM (log[nM] 3)) was 0.4026 and 0.4385. It also gave a viability at 0.01 µM ([3]; Homo sapiens, GB187x, QST 10 nM (log[nM] 1), read-out: Cell viability (fraction of DMSO control)) of 88.5%, a viability at 0.025 µM ([3]; Homo sapiens, GB187x, QST 25 nM (log[nM] 1.39794), read-out: Cell viability (fraction of DMSO control)) of 79.9% and a viability at 0.05 µM ([3]; Homo sapiens, GB187x, QST 50 nM (log[nM] 1.69897), read-out: Cell viability (fraction of DMSO control)) of 70.8%. It also gave a viability at 0.1 µM ([3]; Homo sapiens, GB187x, QST 100 nM (log[nM] 2), read-out: Cell viability (fraction of DMSO control)) of 59%, a viability at 0.25 µM ([3]; Homo sapiens, GB187x, QST 250 nM (log[nM] 2.39794), read-out: Cell viability (fraction of DMSO control)) of 53.2% and a viability at 0.5 µM ([3]; Homo sapiens, GB187x, QST 500 nM (log[nM] 2.69897), read-out: Cell viability (fraction of DMSO control)) of 47.1%. It also gave a viability at 1 µM ([3]; Homo sapiens, GB187x, QST 1000 nM (log[nM] 3), read-out: Cell viability (fraction of DMSO control)) of 43.9% and an IC50 ([3]; Homo sapiens, GB187, 3-5 days) of 100 nM.

Source: PMC10721329, “Quisinostat is a brain-penetrant radiosensitizer in glioblastoma” (JCI Insight, 2023)
